Laboratory results from ChEMBL document CHEMBL1201862, “PubChem BioAssay data set” (2004).
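Where inhibition never reached the appropriate level, the endpoint shown equals the highest concentration tested. Otherwise, values were interpolated linearly from a five-concentration, 48-hour dose response in 96-well plates. GI50 marks 50% less growth.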 Calls of active or inactive are those of the source. No stated cut-off is given here; in the data, active = GI50 up to about 1.1 µM and inactive = higher.

What was measured:
Assay in all cases: inhibition of tumour cell growth, NCI panel, 48 h
SF-295 = test system: SF-295
M14 = test system: M14
NCI-H522 = test system: NCI-H522
SK-MEL-2 = test system: SK-MEL-2
MOLT-4 = test system: MOLT-4
NCI-H23 = test system: NCI-H23
UACC-62 = test system: UACC-62
IGROV-1 = test system: IGROV-1
EKVX = test system: EKVX
HCT-15 = test system: HCT-15
SR = test system: SR
SF-539 = test system: SF-539
HCC 2998 = test system: HCC 2998
Malme-3M = test system: Malme-3M
HL-60 = test system: HL-60
OVCAR-3 = test system: OVCAR-3
T47D = test system: T47D
SN12C = test system: SN12C
CCRF-CEM = test system: CCRF-CEM
SK-MEL-5 = test system: SK-MEL-5

Row | SMILES | GI50 (SF-295) | GI50 (M14) | GI50 (NCI-H522) | GI50 (SK-MEL-2) | GI50 (MOLT-4) | GI50 (NCI-H23) | GI50 (UACC-62) | GI50 (IGROV-1) | GI50 (EKVX) | GI50 (HCT-15) [µM] | GI50 (SR) | GI50 (SF-539) | GI50 (HCC 2998) | GI50 (Malme-3M) | GI50 (HL-60) | GI50 (OVCAR-3) | GI50 (T47D) | GI50 (SN12C) | GI50 (CCRF-CEM) | GI50 (SK-MEL-5)
1 | C#C[C@]1(O)CC[C@H]2[C@@H]3CCC4=C/C(=N\OCCN(CC)CC)CC[C@]4(C)[C@H]3CC[C@@]21C | 2.16 µM (inactive) | 3.02 µM (inactive) | 2.42 µM (inactive) | 3.27 µM (inactive) | 0.122 µM (active) | 5.22 µM (inactive) | 3.44 µM (inactive) | 3.85 µM (inactive) | 6.87 µM (inactive) | 5.6 | 2.94 µM (inactive) | 4.26 µM (inactive) | 10.2 µM (inactive) | 3.25 µM (inactive) | 0.586 µM (active) | 2.87 µM (inactive) | 6.3 µM (inactive) | 9.12 µM (inactive) | 3.33 µM (inactive) | 2.44 µM (inactive)
2 | O=C(NCCCNCCN1C(=O)c2cccc3cc([N+](=O)[O-])cc(c23)C1=O)c1cc(-c2ccccc2)nc2ccccc12 | 3.08 µM (inactive) | 1.72 µM (inactive) | 1.62 µM (inactive) | 3.31 µM (inactive) | 0.347 µM (active) | 3.02 µM (inactive) | 5.12 µM (inactive) | 2.54 µM (inactive) | 7.52 µM (inactive) | 3.03 | 0.426 µM (active) | 1.98 µM (inactive) | 1.49 µM (inactive) | 1.81 µM (inactive) | 1.76 µM (inactive) | 5.87 µM (inactive) | 8.07 µM (inactive) | 3.16 µM (inactive) | 0.966 µM (active) | 2.09 µM (inactive)
3 | CC(C)(Cl)C(Br)CC/C(CBr)=C(/Cl)CCl.CC(C)(Cl)C(Br)CC/C(CBr)=C(\Cl)CCl (stereo not given) | > 10 µM (inactive) | 1.49 µM (inactive) | 1.45 µM (inactive) | 2.23 µM (inactive) | 0.417 µM (active) | 2.43 µM (inactive) | 1.5 µM (inactive) | 0.782 µM (active) | 6.17 µM (inactive) | 2.29 | 0.331 µM (active) | 2.07 µM (inactive) | 2.86 µM (inactive) | 1.9 µM (inactive) | 0.94 µM (active) | 2.32 µM (inactive) | 2.32 µM (inactive) | 0.497 µM (active) | 0.126 µM (active) | 1.82 µM (inactive)
4 | COn1cc(CO)c2ccccc21 | > 100 µM (inactive) | > 86.9 µM (inactive) | 21.5 µM (inactive) | > 54.3 µM (inactive) | 28.8 µM (inactive) | > 100 µM (inactive) | 43.3 µM (inactive) | 22 µM (inactive) | > 83.2 µM (inactive) | > 88.7 | 31.8 µM (inactive) | > 100 µM (inactive) | 32.8 µM (inactive) | 53 µM (inactive) | 31.3 µM (inactive) | 40.8 µM (inactive) | 30.8 µM (inactive) | > 84.7 µM (inactive) | 34.7 µM (inactive) | 64.1 µM (inactive)
5 | COc1ccccc1CNCCCCCNCCCCCCCCCCNCCCCCNCc1ccccc1OC | 24.7 µM (inactive) | 73.6 µM (inactive) | 19.8 µM (inactive) | 18.4 µM (inactive) | 13.6 µM (inactive) | 42.2 µM (inactive) | 36.6 µM (inactive) | 18.8 µM (inactive) |  | > 100 | 14.9 µM (inactive) | 8.65 µM (inactive) | 22.4 µM (inactive) | 24.8 µM (inactive) | 21.8 µM (inactive) | 47 µM (inactive) | 54.7 µM (inactive) | 27.4 µM (inactive) | 13 µM (inactive) | 34.1 µM (inactive)
6 | CCOC(=O)C1c2[nH]c3ccccc3c2CCN1C(=O)c1ccc(OC)o1 (stereo not given) | > 10 µM (inactive) | > 10 µM (inactive) | > 10 µM (inactive) | > 10 µM (inactive) | > 10 µM (inactive) | > 10 µM (inactive) |  | > 10 µM (inactive) | > 10 µM (inactive) | > 10 | > 10 µM (inactive) | > 10 µM (inactive) | > 10 µM (inactive) | 1.29 µM (inactive) | > 10 µM (inactive) | > 10 µM (inactive) | > 10 µM (inactive) | > 10 µM (inactive) | > 10 µM (inactive) | > 10 µM (inactive)
7 | CC(C)(C)NC(=O)CCC1C(C(=O)NC(C)(C)C)C2(Cl)C(Cl)=C(Cl)C1(Cl)C2(Cl)Cl (stereo not given) | > 100 µM (inactive) | > 100 µM (inactive) | > 100 µM (inactive) | > 100 µM (inactive) | > 100 µM (inactive) | > 100 µM (inactive) | > 100 µM (inactive) | > 100 µM (inactive) | > 100 µM (inactive) | > 100 | > 100 µM (inactive) | > 100 µM (inactive) | > 100 µM (inactive) | > 100 µM (inactive) | > 100 µM (inactive) | > 100 µM (inactive) | > 100 µM (inactive) | > 100 µM (inactive) | > 100 µM (inactive) | > 100 µM (inactive)
8 | COc1cc2c(cc1OCCCCCCCCN1C(=O)c3cccc4cccc(c34)C1=O)N=C[C@@H]1CCCN1C2=O | 15.6 µM (inactive) | 37.3 µM (inactive) | 12 µM (inactive) | 14.6 µM (inactive) | 3.48 µM (inactive) | 15.1 µM (inactive) | 13.5 µM (inactive) | 3.11 µM (inactive) | 2.37 µM (inactive) | 12.8 | 4.07 µM (inactive) | 3.45 µM (inactive) | 14.2 µM (inactive) | 21 µM (inactive) | 13.8 µM (inactive) | 11.1 µM (inactive) | 73.6 µM (inactive) | 22.2 µM (inactive) | 2.82 µM (inactive) | 12.7 µM (inactive)
9 | O=C(/C=C1\C[C@H]2C=Nc3ccccc3C(=O)N2C1)NCCCCCNC(=O)/C=C1\C[C@H]2C=Nc3ccccc3C(=O)N2C1 | 18.3 µM (inactive) | 3.49 µM (inactive) | 0.726 µM (active) | 15.1 µM (inactive) | 1.7 µM (inactive) | 9.91 µM (inactive) | 14.7 µM (inactive) | 11 µM (inactive) | 18 µM (inactive) | 3.44 | 1.6 µM (inactive) | 19.1 µM (inactive) | 18.5 µM (inactive) | 2.52 µM (inactive) | 2.4 µM (inactive) | 4.1 µM (inactive) | 2.53 µM (inactive) | 4.74 µM (inactive) | 1.05 µM (active) | 22.2 µM (inactive)
10 | COc1ccc2oc(=O)c(-c3cc4c(c(C)n3)c(=O)oc3ccc(OC)cc34)cc2c1 | 95.7 µM (inactive) | > 100 µM (inactive) | > 100 µM (inactive) | > 100 µM (inactive) | > 100 µM (inactive) | > 100 µM (inactive) | 35.8 µM (inactive) | > 100 µM (inactive) | > 100 µM (inactive) | > 100 | > 100 µM (inactive) | 93.5 µM (inactive) | > 100 µM (inactive) |  | > 100 µM (inactive) | > 100 µM (inactive) | > 100 µM (inactive) | > 100 µM (inactive) | > 100 µM (inactive) | > 100 µM (inactive)
11 | COC(=O)c1c2c(cc3c1CC1(Cc4cc5c(c(C)c4C1)CCC5)C3)CCC2 (stereo not given) | > 100 µM (inactive) | > 100 µM (inactive) | > 100 µM (inactive) | > 100 µM (inactive) | > 100 µM (inactive) | > 100 µM (inactive) |  | > 100 µM (inactive) | > 100 µM (inactive) | > 100 | > 100 µM (inactive) | > 100 µM (inactive) | > 100 µM (inactive) | > 100 µM (inactive) | > 100 µM (inactive) | > 100 µM (inactive) | > 100 µM (inactive) |  | > 100 µM (inactive) | > 100 µM (inactive)
12 | COc1ccc(C(C#N)NCCCCCCNC(C#N)c2ccc(OC)cc2)cc1 (stereo not given) | > 100 µM (inactive) | > 100 µM (inactive) | > 100 µM (inactive) | > 100 µM (inactive) | > 100 µM (inactive) | > 100 µM (inactive) | > 100 µM (inactive) | > 100 µM (inactive) | > 100 µM (inactive) | > 100 | > 100 µM (inactive) | > 100 µM (inactive) | > 100 µM (inactive) | > 100 µM (inactive) | > 100 µM (inactive) | > 100 µM (inactive) | > 100 µM (inactive) | > 100 µM (inactive) | > 100 µM (inactive) | > 100 µM (inactive)
13 | O=c1[nH]c(Nc2ccc(Br)c(C(F)(F)F)c2)nc2[nH]cnc12 | 54.1 µM (inactive) | 30.5 µM (inactive) | 18.5 µM (inactive) | 20.2 µM (inactive) | 32 µM (inactive) | 38.5 µM (inactive) | 23.8 µM (inactive) | 40.4 µM (inactive) | 80.2 µM (inactive) | 76 | 37.1 µM (inactive) | 34.5 µM (inactive) | 17.9 µM (inactive) | 38.8 µM (inactive) | 26 µM (inactive) | 31.8 µM (inactive) | 32.7 µM (inactive) | 43.3 µM (inactive) | 43.8 µM (inactive) | 29.9 µM (inactive)
14 | C/C(=N\N=C(/S)N(C)C)c1cccnn1 | 0.879 µM (active) | 0.594 µM (active) | 0.74 µM (active) | 7.66 µM (inactive) | 0.188 µM (active) | 1.13 µM (inactive) | 0.486 µM (active) | 0.689 µM (active) | 0.551 µM (active) | 0.468 | 0.293 µM (active) | 0.513 µM (active) | 7.46 µM (inactive) | 0.76 µM (active) | 0.365 µM (active) | 0.424 µM (active) | 0.916 µM (active) | 1.1 µM (active) | 0.275 µM (active) | 0.486 µM (active)
